For experiment [1], the system named is Claviceps. As to the kind of experiment: Inhibition of alkaloid biosynthesis in intact cells of Claviceps SD 58 assessed as incorporation of L-[methylene-14C] tryptophan at 3 mM after 24 hrs relative to control. The class given is functional.
Experiment [2] relates to Claviceps. Description: Inhibition of alkaloid biosynthesis in Claviceps SD 58 protoplast assessed as incorporation of L-[methylene-14C] tryptophan at 4 mM relative to control. Also noted: scale not given: the % may be the effect or the level left. Format: functional.
For experiment [3], the system named is Claviceps. Description: Inhibition of DMAT synthase in Claviceps SD 58 assessed as conversion of 1-14C]dimethylallylpyrophosphate to dimethylallyltryptophan at 3 mM after 5 days. Also noted: scale not given: the % may be the effect or the level left.
The test system of experiment [4] is Claviceps. As to the kind of experiment: Inhibition of alkaloid biosynthesis in intact cells of Claviceps SD 58 assessed as incorporation of L-[methylene-14C] tryptophan at 3 mM. Format: functional.

As for `CN1CC(CO)=C[C@@H]2c3cccc4[nH]cc(c34)C[C@H]21` [listing 1 of 3 here], the “fold change (FC)” value in experiment [1] worked out at 2. In experiment [2], the Activity amounted to 50%. Take `CC1=C[C@@H]2c3cccc4[nH]cc(c34)C[C@H]2N(C)C1`: the Activity in experiment [3] worked out at 90%.

As for `CN1CC(CO)=C[C@@H]2c3cccc4[nH]cc(c34)C[C@H]21` [listing 2 of 3 here], the inhibition at 3000 µM in experiment [4] is 29%.

In the case of `CN1CC(CO)=C[C@@H]2c3cccc4[nH]cc(c34)C[C@H]21` [listing 3 of 3 here], in experiment [3], the Activity was found to be 70%.

Values taken from ChEMBL document CHEMBL1151293, “End-Product Regulation of Ergot Alkaloid Formation in Intact Cells and Protoplasts of Claviceps Species, Strain SD 58” (1980).
